# From patent publication US4442044A, “Process for preparing monoesters and diesters of N-alkyl substituted amino methyl phosphonic acid” (priority 1983, dated 1984)
# Experiments:
# Type in all cases: in vivo
# [1] = tested on: Yellow Nutsedge; assay: pre-emergent herbicidal activity, soil incorporation; conditions: Table III, 2 WAT, 11.2 kg/h
# How it was run: (§1)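 Emergence relative to an untreated control was counted after approximately two weeks and converted to an index of average percent control. Treatment was by admixing the active ingredient into the soil used to cover seeds or vegetative propagules, with watering through pan bottoms.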
# [2] = tested on: Quackgrass; assay: as above; conditions: Table III, 2 WAT, 11.2 kg/h
# How it was run: as §1
# [3] = tested on: Morningglory; assay: as above; conditions: Table III, 2 WAT, 11.2 kg/h
# How it was run: as §1
# [4] = tested on: Smartweed; assay: as above; conditions: Table III, 2 WAT, 11.2 kg/h
# How it was run: as §1
# [5] = tested on: Barnyardgrass; assay: as above; conditions: Table III, 2 WAT, 11.2 kg/h
# How it was run: as §1
# [6] = tested on: Canada Thistle; assay: as above; conditions: Table III, 2 WAT, 11.2 kg/h
# How it was run: as §1
# [7] = tested on: Velvetleaf; assay: as above; conditions: Table III, 2 WAT, 11.2 kg/h
# How it was run: as §1
# [8] = tested on: Lambsquarters; assay: as above; conditions: Table III, 2 WAT, 11.2 kg/h
# How it was run: as §1
# [9] = tested on: Cocklebur; assay: as above; conditions: Table III, 2 WAT, 11.2 kg/h
# How it was run: as §1
# [10] = tested on: Johnsongrass; assay: as above; conditions: Table III, 2 WAT, 11.2 kg/h
# How it was run: as §1
# [11] = tested on: Downy Brome; assay: as above; conditions: Table III, 2 WAT, 11.2 kg/h
# How it was run: as §1
# [12] = tested on: Wheat; assay: post-emergent herbicidal activity, greenhouse; conditions: Table II
# How it was run: (§2)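 Post-emergence foliar spray at tabulated application rates, using aliquots of a 1.0% stock in acetone, THF or water plus ~0.4% emulsifier, applied to 2–3-week-old greenhouse plants. Plant injury was rated relative to controls roughly two and four weeks after treatment.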
# [13] = tested on: Sorghum; assay: post-emergent herbicidal activity, greenhouse; conditions: Table II
# How it was run: as §2
# [14] = tested on: Yellow Nutsedge; assay: post-emergent herbicidal activity, greenhouse; conditions: Table I, 4 WAT, 11.2 kg/h
# How it was run: as §2
# [15] = tested on: Wild Buckwheat; assay: post-emergent herbicidal activity, greenhouse; conditions: Table II
# How it was run: as §2
# [16] = tested on: Rice; assay: post-emergent herbicidal activity, greenhouse; conditions: Table II
# How it was run: as §2
# [17] = tested on: Morningglory; assay: post-emergent herbicidal activity, greenhouse
# How it was run: as §2
# [18] = tested on: Barnyardgrass; assay: post-emergent herbicidal activity, greenhouse
# How it was run: as §2
# [19] = tested on: Panicum Spp; assay: post-emergent herbicidal activity, greenhouse; conditions: Table II
# How it was run: as §2
# [20] = tested on: Lambsquarters; assay: post-emergent herbicidal activity, greenhouse
# How it was run: as §2
# [21] = tested on: Johnsongrass; assay: post-emergent herbicidal activity, greenhouse; conditions: Table I, 4 WAT
# How it was run: as §2
# [22] = tested on: Downy Brome; assay: post-emergent herbicidal activity, greenhouse
# How it was run: as §2
smiles,measurement,setting,value
"CC(C#N)OP(=O)(O)CNCC(=O)OCCCl (stereo not shown) [Example 7, glycine, N-[[(1-cyanoethoxy)hydroxyphosphinyl]methyl], 2-chloroethyl ester]",pre-emergent herbicidal activity index,[1],0 (1-24% control)
same,pre-emergent herbicidal activity index,[2],0 (1-24% control)
same,pre-emergent herbicidal activity index,[3],0 (1-24% control)
same,pre-emergent herbicidal activity index,[4],0 (1-24% control)
same,pre-emergent herbicidal activity index,[5],0 (1-24% control)
same,pre-emergent herbicidal activity index,[6],1 (25-49% control)
same,pre-emergent herbicidal activity index,[7],0 (1-24% control)
same,pre-emergent herbicidal activity index,[8],0 (1-24% control)
same,pre-emergent herbicidal activity index,[9],0 (1-24% control)
same,pre-emergent herbicidal activity index,[10],1 (25-49% control)
same,pre-emergent herbicidal activity index,[11],0 (1-24% control)
same,post-emergent herbicidal activity index,"[12]; 2 WAT, 0.01 kg/h",0 (0-24% control)
same,post-emergent herbicidal activity index,"[12]; 4 WAT, 0.06 kg/h",1 (25-49% control)
same,post-emergent herbicidal activity index,"[12]; 4 WAT, 0.28 kg/h",3 (75-99% control)
same,post-emergent herbicidal activity index,"[12]; 4 WAT, 1.12 kg/h",3 (75-99% control)
same,post-emergent herbicidal activity index,"[12]; 4 WAT, 5.6 kg/h",4 (100% control)
same,post-emergent herbicidal activity index,"[13]; 2 WAT, 0.01 kg/h",0 (0-24% control)
same,post-emergent herbicidal activity index,"[13]; 4 WAT, 0.06 kg/h",2 (50-74% control)
same,post-emergent herbicidal activity index,"[13]; 4 WAT, 0.28 kg/h",2 (50-74% control)
same,post-emergent herbicidal activity index,"[13]; 4 WAT, 1.12 kg/h",2 (50-74% control)
same,post-emergent herbicidal activity index,"[13]; 4 WAT, 5.6 kg/h",3 (75-99% control)
same,post-emergent herbicidal activity index,[14],3 (75-99% control)
same,post-emergent herbicidal activity index,"[15]; 2 WAT, 0.01 kg/h",0 (0-24% control)
same,post-emergent herbicidal activity index,"[15]; 4 WAT, 0.06 kg/h",0 (0-24% control)
same,post-emergent herbicidal activity index,"[15]; 4 WAT, 0.28 kg/h",2 (50-74% control)
same,post-emergent herbicidal activity index,"[15]; 4 WAT, 1.12 kg/h",2 (50-74% control)
same,post-emergent herbicidal activity index,"[15]; 4 WAT, 5.6 kg/h",2 (50-74% control)
same,post-emergent herbicidal activity index,"[16]; 2 WAT, 0.01 kg/h",0 (0-24% control)
same,post-emergent herbicidal activity index,"[16]; 4 WAT, 0.06 kg/h",0 (0-24% control)
same,post-emergent herbicidal activity index,"[16]; 4 WAT, 0.28 kg/h",1 (25-49% control)
same,post-emergent herbicidal activity index,"[16]; 4 WAT, 1.12 kg/h",3 (75-99% control)
same,post-emergent herbicidal activity index,"[16]; 4 WAT, 5.6 kg/h",3 (75-99% control)
same,post-emergent herbicidal activity index,"[17]; Table I, 4 WAT, 5.6 kg/h",2 (50-74% control)
same,post-emergent herbicidal activity index,"[17]; Table I, 4 WAT, 11.2 kg/h",2 (50-74% control)
same,post-emergent herbicidal activity index,"[17]; Table II, 2 WAT, 0.01 kg/h",1 (25-49% control)
same,post-emergent herbicidal activity index,"[17]; Table II, 4 WAT, 0.06 kg/h",2 (50-74% control)
same,post-emergent herbicidal activity index,"[17]; Table II, 4 WAT, 0.28 kg/h",1 (25-49% control)
same,post-emergent herbicidal activity index,"[17]; Table II, 4 WAT, 1.12 kg/h",2 (50-74% control)
same,post-emergent herbicidal activity index,"[17]; Table II, 4 WAT, 5.6 kg/h",2 (50-74% control)
same,post-emergent herbicidal activity index,"[18]; Table I, 4 WAT, 5.6 kg/h",3 (75-99% control)
same,post-emergent herbicidal activity index,"[18]; Table I, 4 WAT, 11.2 kg/h",2 (50-74% control)
same,post-emergent herbicidal activity index,"[18]; Table II, 2 WAT, 0.01 kg/h",0 (0-24% control)
same,post-emergent herbicidal activity index,"[18]; Table II, 4 WAT, 0.06 kg/h",2 (50-74% control)
same,post-emergent herbicidal activity index,"[18]; Table II, 4 WAT, 0.28 kg/h",2 (50-74% control)
same,post-emergent herbicidal activity index,"[18]; Table II, 4 WAT, 1.12 kg/h",3 (75-99% control)
same,post-emergent herbicidal activity index,"[18]; Table II, 4 WAT, 5.6 kg/h",3 (75-99% control)
same,post-emergent herbicidal activity index,"[19]; 2 WAT, 0.01 kg/h",0 (0-24% control)
same,post-emergent herbicidal activity index,"[19]; 4 WAT, 0.06 kg/h",3 (75-99% control)
same,post-emergent herbicidal activity index,"[19]; 4 WAT, 0.28 kg/h",3 (75-99% control)
same,post-emergent herbicidal activity index,"[19]; 4 WAT, 1.12 kg/h",4 (100% control)
same,post-emergent herbicidal activity index,"[19]; 4 WAT, 5.6 kg/h",3 (75-99% control)
same,post-emergent herbicidal activity index,"[20]; Table I, 4 WAT, 5.6 kg/h",4 (100% control)
same,post-emergent herbicidal activity index,"[20]; Table I, 4 WAT, 11.2 kg/h",3 (75-99% control)
same,post-emergent herbicidal activity index,"[20]; Table II, 2 WAT, 0.01 kg/h",1 (25-49% control)
same,post-emergent herbicidal activity index,"[20]; Table II, 4 WAT, 0.06 kg/h",0 (0-24% control)
same,post-emergent herbicidal activity index,"[20]; Table II, 4 WAT, 0.28 kg/h",4 (100% control)
same,post-emergent herbicidal activity index,"[20]; Table II, 4 WAT, 1.12 kg/h",2 (50-74% control)
same,post-emergent herbicidal activity index,"[20]; Table II, 4 WAT, 5.6 kg/h",2 (50-74% control)
same,post-emergent herbicidal activity index,[21]; 5.6 kg/h,1 (25-49% control)
same,post-emergent herbicidal activity index,[21]; 11.2 kg/h,0 (0-24% control)
same,post-emergent herbicidal activity index,"[22]; Table I, 4 WAT, 5.6 kg/h",2 (50-74% control)
same,post-emergent herbicidal activity index,"[22]; Table I, 4 WAT, 11.2 kg/h",2 (50-74% control)
same,post-emergent herbicidal activity index,"[22]; Table II, 2 WAT, 0.01 kg/h",0 (0-24% control)
same,post-emergent herbicidal activity index,"[22]; Table II, 4 WAT, 0.06 kg/h",1 (25-49% control)
same,post-emergent herbicidal activity index,"[22]; Table II, 4 WAT, 0.28 kg/h",2 (50-74% control)
same,post-emergent herbicidal activity index,"[22]; Table II, 4 WAT, 1.12 kg/h",2 (50-74% control)
same,post-emergent herbicidal activity index,"[22]; Table II, 4 WAT, 5.6 kg/h",3 (75-99% control)
